Assay results published in ChEMBL document CHEMBL4507268 (2021).

Legend:
Details in all cases: Compound concentration 1000.0 nM
[1] = target: T1, Serine/threonine-protein kinase BRSK1 (Homo sapiens) (UniProt Q8TDC3)
T1 sequence (whole entry): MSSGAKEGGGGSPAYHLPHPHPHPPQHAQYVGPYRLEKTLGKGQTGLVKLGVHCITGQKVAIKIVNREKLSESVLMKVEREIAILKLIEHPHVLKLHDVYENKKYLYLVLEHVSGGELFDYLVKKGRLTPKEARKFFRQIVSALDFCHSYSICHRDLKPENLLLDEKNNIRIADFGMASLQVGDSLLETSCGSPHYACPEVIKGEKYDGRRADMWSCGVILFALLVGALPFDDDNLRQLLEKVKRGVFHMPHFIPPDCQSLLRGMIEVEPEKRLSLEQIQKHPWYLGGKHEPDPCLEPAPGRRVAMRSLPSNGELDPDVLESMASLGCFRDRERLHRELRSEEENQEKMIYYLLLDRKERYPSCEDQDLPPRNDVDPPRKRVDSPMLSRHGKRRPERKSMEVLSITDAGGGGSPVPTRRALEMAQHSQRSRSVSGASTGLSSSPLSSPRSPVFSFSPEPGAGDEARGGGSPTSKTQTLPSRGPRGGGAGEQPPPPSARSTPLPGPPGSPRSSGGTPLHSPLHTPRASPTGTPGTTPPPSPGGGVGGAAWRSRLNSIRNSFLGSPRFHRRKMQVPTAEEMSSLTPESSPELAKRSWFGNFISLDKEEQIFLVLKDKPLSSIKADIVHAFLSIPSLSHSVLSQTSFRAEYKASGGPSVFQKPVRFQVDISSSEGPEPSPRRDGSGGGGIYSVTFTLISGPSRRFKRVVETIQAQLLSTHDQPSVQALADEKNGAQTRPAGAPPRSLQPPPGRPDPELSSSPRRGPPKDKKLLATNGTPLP

[2] = target: Receptor tyrosine-protein kinase erbB-3 (Homo sapiens) (UniProt P21860)
[3] = target: Vascular endothelial growth factor receptor 1 (Homo sapiens) (UniProt P17948)
[4] = test system: Mast/stem cell growth factor receptor Kit (Homo sapiens), P10721 [D816V]
[5] = target: T2, Myosin-IIIb (Homo sapiens) (UniProt Q8WXR4)
T2 sequence (whole entry): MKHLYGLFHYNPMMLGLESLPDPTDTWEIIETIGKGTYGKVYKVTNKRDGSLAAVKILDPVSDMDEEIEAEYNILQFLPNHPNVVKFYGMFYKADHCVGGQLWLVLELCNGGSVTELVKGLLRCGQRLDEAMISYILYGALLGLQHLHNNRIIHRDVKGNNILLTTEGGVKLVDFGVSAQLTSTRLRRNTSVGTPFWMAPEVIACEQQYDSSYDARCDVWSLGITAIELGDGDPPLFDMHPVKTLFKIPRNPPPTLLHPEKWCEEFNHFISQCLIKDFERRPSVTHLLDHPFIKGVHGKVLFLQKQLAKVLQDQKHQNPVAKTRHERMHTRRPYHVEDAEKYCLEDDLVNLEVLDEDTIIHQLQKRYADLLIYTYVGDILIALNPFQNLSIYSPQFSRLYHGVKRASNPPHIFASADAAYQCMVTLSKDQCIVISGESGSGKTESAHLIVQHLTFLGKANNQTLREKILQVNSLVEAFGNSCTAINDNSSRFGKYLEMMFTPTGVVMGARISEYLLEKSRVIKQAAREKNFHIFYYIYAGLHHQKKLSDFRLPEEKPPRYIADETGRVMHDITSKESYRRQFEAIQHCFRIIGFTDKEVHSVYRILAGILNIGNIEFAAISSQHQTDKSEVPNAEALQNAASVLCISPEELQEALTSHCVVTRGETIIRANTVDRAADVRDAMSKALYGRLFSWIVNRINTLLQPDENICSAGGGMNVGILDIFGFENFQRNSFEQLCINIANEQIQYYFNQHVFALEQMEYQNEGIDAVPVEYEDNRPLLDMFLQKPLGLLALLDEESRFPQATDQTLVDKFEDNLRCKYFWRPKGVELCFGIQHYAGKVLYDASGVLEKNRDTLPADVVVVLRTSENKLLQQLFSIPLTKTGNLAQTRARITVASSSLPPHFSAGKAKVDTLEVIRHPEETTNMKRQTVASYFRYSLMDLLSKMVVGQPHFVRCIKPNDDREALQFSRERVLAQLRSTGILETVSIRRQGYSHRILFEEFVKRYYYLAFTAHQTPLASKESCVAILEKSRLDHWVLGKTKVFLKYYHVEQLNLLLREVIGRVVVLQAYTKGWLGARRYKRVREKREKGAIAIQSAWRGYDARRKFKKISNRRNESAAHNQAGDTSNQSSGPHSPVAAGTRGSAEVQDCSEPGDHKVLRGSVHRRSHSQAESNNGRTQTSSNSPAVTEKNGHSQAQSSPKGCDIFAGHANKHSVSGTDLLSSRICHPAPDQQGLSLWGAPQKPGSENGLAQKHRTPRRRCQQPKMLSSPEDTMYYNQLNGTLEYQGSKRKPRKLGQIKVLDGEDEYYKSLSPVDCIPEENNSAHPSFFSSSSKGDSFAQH

[6] = test system: Phosphatidylinositol 4,5-bisphosphate 3-kinase catalytic subunit alpha isoform (Homo sapiens), P42336 [Q546K]
[7] = target: RAF proto-oncogene serine/threonine-protein kinase (Homo sapiens) (UniProt P04049)
[8] = target: Ribosomal protein S6 kinase beta-1 (Homo sapiens) (UniProt P23443)

Measured: residual activity

Vascular endothelial growth factor receptor 1 (Homo sapiens), sequence (P17948 whole entry): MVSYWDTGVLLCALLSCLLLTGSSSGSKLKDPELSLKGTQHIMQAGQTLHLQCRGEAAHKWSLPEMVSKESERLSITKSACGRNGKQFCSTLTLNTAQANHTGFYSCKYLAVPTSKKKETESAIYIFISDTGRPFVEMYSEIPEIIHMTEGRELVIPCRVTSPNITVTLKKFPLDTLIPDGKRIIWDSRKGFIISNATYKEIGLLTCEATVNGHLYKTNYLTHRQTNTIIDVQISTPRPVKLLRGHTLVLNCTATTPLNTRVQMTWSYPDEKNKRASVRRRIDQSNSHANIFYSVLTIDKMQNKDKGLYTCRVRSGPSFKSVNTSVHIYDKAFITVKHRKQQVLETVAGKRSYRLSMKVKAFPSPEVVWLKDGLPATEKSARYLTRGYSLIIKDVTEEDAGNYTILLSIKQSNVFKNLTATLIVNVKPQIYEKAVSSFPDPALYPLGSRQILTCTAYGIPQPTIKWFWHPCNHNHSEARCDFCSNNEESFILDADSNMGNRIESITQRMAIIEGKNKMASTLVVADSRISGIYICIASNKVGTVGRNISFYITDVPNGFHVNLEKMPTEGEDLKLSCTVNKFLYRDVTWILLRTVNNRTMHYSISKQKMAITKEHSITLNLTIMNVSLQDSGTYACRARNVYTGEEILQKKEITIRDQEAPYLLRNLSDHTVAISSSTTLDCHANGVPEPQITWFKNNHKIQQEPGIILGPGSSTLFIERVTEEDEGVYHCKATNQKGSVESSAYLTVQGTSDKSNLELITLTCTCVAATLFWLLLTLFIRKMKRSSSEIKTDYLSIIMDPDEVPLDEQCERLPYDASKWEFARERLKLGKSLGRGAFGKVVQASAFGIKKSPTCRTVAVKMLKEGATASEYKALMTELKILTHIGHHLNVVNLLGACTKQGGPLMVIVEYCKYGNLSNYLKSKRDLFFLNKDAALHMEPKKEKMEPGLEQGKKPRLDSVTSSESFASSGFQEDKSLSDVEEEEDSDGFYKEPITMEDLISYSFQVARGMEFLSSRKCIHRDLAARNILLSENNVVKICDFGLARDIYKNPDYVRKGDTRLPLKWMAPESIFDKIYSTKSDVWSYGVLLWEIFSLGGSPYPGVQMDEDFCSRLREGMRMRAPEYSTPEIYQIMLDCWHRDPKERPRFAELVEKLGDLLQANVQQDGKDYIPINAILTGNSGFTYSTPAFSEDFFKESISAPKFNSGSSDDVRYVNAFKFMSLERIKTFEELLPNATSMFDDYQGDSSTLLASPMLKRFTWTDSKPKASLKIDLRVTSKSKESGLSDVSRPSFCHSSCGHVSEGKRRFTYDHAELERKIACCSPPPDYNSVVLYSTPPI
Mast/stem cell growth factor receptor Kit (Homo sapiens), P10721 [D816V], sequence (P10721 whole entry D816V): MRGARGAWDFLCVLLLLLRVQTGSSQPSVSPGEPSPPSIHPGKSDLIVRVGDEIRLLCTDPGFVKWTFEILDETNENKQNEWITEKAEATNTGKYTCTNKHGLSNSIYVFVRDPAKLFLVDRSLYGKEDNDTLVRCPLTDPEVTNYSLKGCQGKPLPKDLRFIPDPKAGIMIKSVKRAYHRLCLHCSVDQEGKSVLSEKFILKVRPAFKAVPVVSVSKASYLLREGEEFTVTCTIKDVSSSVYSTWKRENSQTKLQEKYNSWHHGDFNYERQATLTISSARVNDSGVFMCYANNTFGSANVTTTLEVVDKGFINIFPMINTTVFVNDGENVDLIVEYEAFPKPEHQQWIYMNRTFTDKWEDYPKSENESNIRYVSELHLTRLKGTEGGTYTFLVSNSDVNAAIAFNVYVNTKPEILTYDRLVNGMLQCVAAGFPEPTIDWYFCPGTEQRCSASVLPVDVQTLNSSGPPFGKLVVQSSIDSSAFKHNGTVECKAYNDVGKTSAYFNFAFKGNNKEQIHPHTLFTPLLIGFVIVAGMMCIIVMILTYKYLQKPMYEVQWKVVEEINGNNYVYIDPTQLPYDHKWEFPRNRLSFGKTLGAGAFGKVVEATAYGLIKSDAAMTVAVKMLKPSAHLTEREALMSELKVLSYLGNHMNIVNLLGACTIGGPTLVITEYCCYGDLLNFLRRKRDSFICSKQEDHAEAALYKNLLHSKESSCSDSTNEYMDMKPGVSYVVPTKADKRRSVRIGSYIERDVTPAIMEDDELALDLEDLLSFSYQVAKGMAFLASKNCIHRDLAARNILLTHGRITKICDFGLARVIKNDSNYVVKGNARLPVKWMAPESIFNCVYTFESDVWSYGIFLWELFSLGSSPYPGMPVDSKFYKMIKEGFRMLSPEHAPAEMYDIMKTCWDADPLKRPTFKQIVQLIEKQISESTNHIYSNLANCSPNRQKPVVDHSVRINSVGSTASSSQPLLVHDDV
Ribosomal protein S6 kinase beta-1 (Homo sapiens), sequence (P23443 whole entry, looked up): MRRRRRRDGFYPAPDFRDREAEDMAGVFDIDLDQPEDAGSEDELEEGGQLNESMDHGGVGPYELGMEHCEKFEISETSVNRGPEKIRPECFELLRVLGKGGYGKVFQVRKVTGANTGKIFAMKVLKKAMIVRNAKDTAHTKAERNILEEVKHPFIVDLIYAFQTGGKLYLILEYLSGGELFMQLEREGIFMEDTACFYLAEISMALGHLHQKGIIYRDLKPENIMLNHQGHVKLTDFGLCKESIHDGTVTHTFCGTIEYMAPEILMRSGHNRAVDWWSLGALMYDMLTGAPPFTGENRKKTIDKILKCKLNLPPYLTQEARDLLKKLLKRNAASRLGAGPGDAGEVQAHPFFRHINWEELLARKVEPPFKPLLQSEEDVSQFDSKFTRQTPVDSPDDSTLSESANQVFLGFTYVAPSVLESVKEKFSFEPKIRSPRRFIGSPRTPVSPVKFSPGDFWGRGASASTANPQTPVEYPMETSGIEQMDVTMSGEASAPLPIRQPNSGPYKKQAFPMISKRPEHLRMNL
Receptor tyrosine-protein kinase erbB-3 (Homo sapiens), sequence (P21860 whole entry): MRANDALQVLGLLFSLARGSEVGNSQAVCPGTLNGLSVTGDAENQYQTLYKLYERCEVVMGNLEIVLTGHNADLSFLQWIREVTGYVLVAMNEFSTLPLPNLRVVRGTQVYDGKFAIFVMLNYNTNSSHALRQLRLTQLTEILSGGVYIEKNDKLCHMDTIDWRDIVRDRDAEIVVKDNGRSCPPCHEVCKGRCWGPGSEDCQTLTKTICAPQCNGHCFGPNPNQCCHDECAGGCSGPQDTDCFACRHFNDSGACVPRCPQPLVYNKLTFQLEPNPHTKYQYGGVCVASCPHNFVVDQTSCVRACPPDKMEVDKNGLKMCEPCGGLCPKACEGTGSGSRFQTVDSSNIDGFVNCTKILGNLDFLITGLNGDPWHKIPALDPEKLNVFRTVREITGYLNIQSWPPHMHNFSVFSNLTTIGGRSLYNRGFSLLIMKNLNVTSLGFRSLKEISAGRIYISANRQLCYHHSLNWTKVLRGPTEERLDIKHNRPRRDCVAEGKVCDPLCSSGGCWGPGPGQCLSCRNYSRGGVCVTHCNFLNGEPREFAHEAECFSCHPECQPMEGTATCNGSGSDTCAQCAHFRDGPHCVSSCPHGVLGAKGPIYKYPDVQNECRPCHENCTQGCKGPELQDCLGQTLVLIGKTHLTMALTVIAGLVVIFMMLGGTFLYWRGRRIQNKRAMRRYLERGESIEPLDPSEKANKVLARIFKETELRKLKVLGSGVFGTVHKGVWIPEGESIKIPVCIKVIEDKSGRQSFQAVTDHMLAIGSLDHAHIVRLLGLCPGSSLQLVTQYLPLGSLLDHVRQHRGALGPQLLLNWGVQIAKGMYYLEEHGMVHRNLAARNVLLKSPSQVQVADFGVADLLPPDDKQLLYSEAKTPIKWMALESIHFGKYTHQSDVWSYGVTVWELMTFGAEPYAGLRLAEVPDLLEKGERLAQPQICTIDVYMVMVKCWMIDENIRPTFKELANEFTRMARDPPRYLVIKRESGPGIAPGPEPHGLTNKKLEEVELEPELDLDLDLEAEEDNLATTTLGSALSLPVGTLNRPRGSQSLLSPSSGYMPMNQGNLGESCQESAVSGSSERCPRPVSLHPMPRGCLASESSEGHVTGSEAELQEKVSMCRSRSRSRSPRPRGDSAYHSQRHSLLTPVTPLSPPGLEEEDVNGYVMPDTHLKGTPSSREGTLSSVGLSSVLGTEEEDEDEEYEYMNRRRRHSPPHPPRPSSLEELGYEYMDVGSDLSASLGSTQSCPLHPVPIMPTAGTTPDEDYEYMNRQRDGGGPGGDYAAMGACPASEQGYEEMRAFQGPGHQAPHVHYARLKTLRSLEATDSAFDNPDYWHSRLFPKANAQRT
RAF proto-oncogene serine/threonine-protein kinase (Homo sapiens), sequence (P04049 whole entry): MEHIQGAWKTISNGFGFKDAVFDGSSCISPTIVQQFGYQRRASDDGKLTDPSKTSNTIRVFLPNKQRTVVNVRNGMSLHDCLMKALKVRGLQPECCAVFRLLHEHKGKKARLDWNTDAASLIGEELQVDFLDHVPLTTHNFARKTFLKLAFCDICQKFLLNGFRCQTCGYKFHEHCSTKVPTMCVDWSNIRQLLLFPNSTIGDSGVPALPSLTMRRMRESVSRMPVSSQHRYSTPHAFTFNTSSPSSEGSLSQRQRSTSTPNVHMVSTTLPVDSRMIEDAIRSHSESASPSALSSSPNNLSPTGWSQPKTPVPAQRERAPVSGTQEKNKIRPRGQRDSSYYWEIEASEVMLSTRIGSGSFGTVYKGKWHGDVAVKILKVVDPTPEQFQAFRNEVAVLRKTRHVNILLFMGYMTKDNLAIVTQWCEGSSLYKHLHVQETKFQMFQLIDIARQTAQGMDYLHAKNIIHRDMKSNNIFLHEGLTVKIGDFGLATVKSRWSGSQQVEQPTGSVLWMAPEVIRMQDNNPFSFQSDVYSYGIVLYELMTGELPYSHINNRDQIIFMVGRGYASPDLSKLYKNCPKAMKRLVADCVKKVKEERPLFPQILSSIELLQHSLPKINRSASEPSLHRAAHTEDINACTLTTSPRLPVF

Cc1nc(C2CCN(C(=O)c3ccc(OC(F)(F)F)cc3N)CC2)c2ncc(N3CCN(C)CC3)cc2n1 [BAY-693]
inactive: [1] 100% | [2] 88% | [3] 88% | [4] 100% | [5] 71% | [6] 88% | [7] 77% | [8] 99%

CN1CCN(c2cnc3c(C4CCN(C(=O)c5ccc(OC(F)(F)F)cc5N)CC4)ncnc3c2)CC1 [BAY-885]
inactive: [1] 100% | [2] 84% | [3] 76% | [4] 100% | [5] 73% | [6] 100% | [7] 75% | [8] 90%
